Measured values taken from PMC9267059, “Selective Inhibition of Murine Cytomegalovirus Viral Gene Expression by the Antiviral Peptide TAT-I24” (International Journal of Molecular Sciences, 2022).

What was measured:
[1] = tested on: double-stranded DNA; settings: cited from earlier work
Experimental: To determine whether reduction of host-gene expression early after MCMV infection is related to the ability of the peptide to bind DNA, variants of TAT-I24 were generated with modifications of the TAT fusion partner (Figure 5A). The peptides were tested for their potency in inhibiting MCMV replication and their binding to DNA. […] Inhibition is independent of whether these are immediate-early, early or late genes, as they were all reduced to a similar extent, thereby excluding a specific effect of the peptide on a particular viral gene.

[2] = tested on: MCMV viral gene expression; assay: MCMV viral gene transcript levels by quantitative PCR relative to Gapdh; assay type: cell-based, murine cytomegalovirus; settings: for ie1 transcript levels, comparison of peptides: NIH/3T3, MCMV MOI 1, 2 h post-infection
Experimental: NIH/3T3 fibroblasts were infected with MCMV expressing luciferase at low MOI (MOI 1) with the aid of centrifugal enhancement. Infections were performed either in the absence or presence of 10 µM TAT-I24. Cells were lysed after 30 min or 2-, 4-, 8- and 24-h post-infection. Total RNA was isolated and treated with DNase I to remove viral DNA before synthesis of the cDNA. Levels of viral transcripts were then analyzed by quantitative PCR and normalized to mRNA levels of the glyceraldehyde-3-phosphate dehydrogenase (Gapdh) housekeeping gene.
NIH/3T3 cells were seeded at a density of 8 × 10^4 cells/well of a 24-well plate and allowed to attach overnight. On the next day, MCMV strain delm157-luc rep was adsorbed to cells (MOI 1) in the absence or presence of 10 µM TAT-I24 and centrifuged twice at 800× g for 15 min. Cells were then kept at 37 °C and lysed after the indicated time-points.

[3] = tested on: host-cell transcripts in NIH/3T3 cells infected with MCMV; assay: Host-cell transcript levels by quantitative PCR in MCMV-infected NIH/3T3 cells; assay type: cell-based; settings: for Ccl5 expression, comparison of peptides / Ccl7 expression, comparison of peptides / Ifit1 expression, comparison of peptides: MCMV MOI 1, 2 h post-infection, four independent experiments
[4] = tested on: double-stranded DNA; assay: DNA binding assay (fluorescence reduction of SYBR Gold-stained plasmid DNA); settings: three independent experiments performed in duplicates
Experimental: Binding of peptides to double-stranded DNA was determined by reduction of fluorescence from SYBR® Gold-stained plasmid DNA as described previously.

[5] = tested on: mouse cytomegalovirus (CMV); settings: cited from earlier work
[6] = tested on: MCMV; assay: Crystal violet staining of MCMV-infected NIH/3T3 cells (cytopathic effects); assay type: cell-based, murine cytomegalovirus
Experimental: This strain was also used in the present investigation. […] However, with increasing concentrations of TAT-I24, the cytopathic effects caused by the virus infection were inhibited (Figure 1A). […] For all further investigations, 10 µM of TAT-I24 was therefore chosen to ensure efficient inhibition of MCMV infection.
NIH/3T3 cells were seeded at a density of 2 × 10^4 cells/well of a 96-well plate and allowed to attach overnight. On the next day, cells were treated with increasing concentrations of TAT-I24 and infected with MCMV strain delm157-luc rep with centrifugal enhancement twice at 800× g for 15 min. After 48 h, cells were fixed with 4% formaldehyde and stained with 1% crystal violet solution for 30 min at room temperature followed by three times washing with water. Microscopic examination was performed using a Live Cell Video Microscope (Leica Microsystems; Wetzlar, Germany).

[7] = tested on: NIH/3T3 cells; assay: Cell viability assay (Cell Titer Glo 2.0); assay type: cell-based; settings: 10 µM, 48 h, Cell Titer Glo 2.0 luminescence, eight replicates per group
Experimental: NIH/3T3 cells were grown in CO2-independent medium supplemented with 10% fetal calf serum, 2 mM glutamine and 1% antibiotic-antimycotic (ThermoFisher; Darmstadt, Germany) and cultivated in a humidified atmosphere at 37 °C and passaged once a week. For determination of cell viability, NIH/3T3 cells were seeded at a density of 2 × 10^4 cells/well of a 96-well plate and treated with vehicle (DMSO) or 10 µM TAT-I24. After 48 h, cells were lysed using Cell Titer Glo 2.0 reagent (Promega; Mannheim, Germany) and luminescence recorded using a GloMax Multi instrument (Promega; Mannheim, Germany).

[8] = tested on: MCMV viral DNA; assay: MCMV viral DNA determined by ie1 PCR from RNA extracts; assay type: cell-based, murine cytomegalovirus
Experimental: The levels of viral DNA in the RNA extracts were also determined by PCR using the ie1 primer pair. In peptide-treated cells, the amount of viral DNA was about 60% compared to untreated cells. The amount of viral DNA declined in both settings between 2 and 8 h. […] This is in accordance with our earlier study using detection of the luciferase gene of MCMV strain delm157-luc rep.

[9] = tested on: BrdU-labelled MCMV DNA; assay: Staining of BrdU-labelled MCMV DNA in NIH/3T3 cells; assay type: cell-based, murine cytomegalovirus
Experimental: When infection of cells is performed with MCMV labelled with bromodeoxyuridine (BrdU), a clear reduction in BrdU-labelled genomes in TAT-I24-treated cells can be observed. It was speculated that this was due to the interaction of the peptide with the viral DNA, leading to the prevention of BrdU-antibody binding. This was further supported by the observation that the incubation of cells with TAT-I24 after fixation and permeabilization led to an impairment of BrdU-staining. As additional support for this concept, BrdU-labelled MCMV was adsorbed to NIH/3T3 cells at 4 °C in the absence or presence of 10 µM TAT-I24. Cells were then washed with ice-cold medium followed by transfer to 37 °C and fixation and permeabilization 30 min post-cold release. In one setting, cells were additionally treated with pepsin for 20 min at 37 °C to degrade the peptide.
NIH/3T3 cells were seeded at a density of 4 × 10^4 cells/well into ibiTreat eight-well chambers (ibidi, Gräfelfing, Germany). Bromodeoxyuridine (BrdU)-labelled virus was adsorbed to cells in the absence or presence of 10 µM TAT-I24 as described before. Pepsin treatment was performed by incubation of cells after fixation, permeabilization and denaturation with Pepsin Reagent, Ready to Use, Antigen Retriever (Merck; Schnelldorf, Germany) for 20 min. Cells were then washed twice with 1xTBE followed by three washes with PBS. […]

[10] = tested on: NIH/3T3 cells; settings: 20 µM; cited from earlier work
Description: This strain was also used in the present investigation. […] However, with increasing concentrations of TAT-I24, the cytopathic effects caused by the virus infection were inhibited (Figure 1A).

[11] = tested on: SV40 polyomavirus; settings: cited from earlier work
Description: (§1) We have described the novel antiviral peptide TAT-I24, a fusion of the 9-mer peptide I24 and the TAT peptide, which exerts broad-spectrum activity against several double-stranded DNA viruses. […] The antiv ...

[12] = tested on: herpes simplex virus; settings: cited from earlier work
Description: as §1

[13] = tested on: human cytomegalovirus (CMV); settings: cited from earlier work
Description: as §1

[14] = tested on: human immunodeficiency virus-1 (HIV-1); settings: cited from earlier work
Description: as §1

[15] = tested on: non-replicating baculovirus; settings: mammalian cells; cited from earlier work
Description: as §1

[16] = tested on: respiratory syncytial virus (RSV); settings: cited from earlier work
Description: as §1

[17] = tested on: some adenoviruses; settings: cited from earlier work
Description: as §1

[18] = tested on: vaccinia virus; settings: cited from earlier work
Description: as §1

[19] = tested on: host-cell transcripts in NIH/3T3 cells infected with UV-inactivated MCMV; assay: Host-cell transcript levels in cells infected with UV-irradiated MCMV; settings: UV-inactivated MCMV MOI 2.5, 10 µM, 2 h post-infection, three independent experiments
[20] = tested on: MCMV; assay: Luciferase assay of MCMV replication (strain delm157-luc rep) in NIH/3T3 cells; assay type: cell-based, murine cytomegalovirus; settings: NIH/3T3 cells infected with MCMV, 72 h post-infection, at the concentrations tested, three independent experiments in duplicates
Experimental: NIH/3T3 cells were seeded at a density of 2 × 10^4 cells/well of a 96-well plate and allowed to attach overnight. On the next day, cells were treated with various concentrations of peptides, or cidofovir either alone or in combination with increasing concentrations of TAT-I24 and infected with MCMV strain delm157-luc rep with centrifugal enhancement twice at 800× g for 15 min. After 72 h, cells were lysed and luciferase measured using luciferase assay system (Promega; Mannheim, Germany) using a GloMax Multi instrument (Promega; Mannheim, Germany).
Curve fittings and statistics were calculated using GraphPad Prism 8 (GraphPad Software, San Diego, CA, USA). Bliss synergy scores were calculated using SynergyFinder 2.0 software (https://synergyfinder.fimm.fi (accessed on 25 June 2022)).

[21] = MOI comparison experiment, MOI 1 with 10 µM, 2 h post-infection, two independent experiments
[22] = MCMV MOI 1, 10 µM, 2 h post-infection
[23] = MCMV MOI 1, 10 µM, 4 h post-infection

Sequence: CLAFYACFC [I24]
- binding to DNA [1]: also binds DNA

Sequence: GRKKRRCLAFYACFC [TAT-M26, six N-terminal amino-acid residues of the TAT peptide fused to I24]
- ie1 transcript levels, comparison of peptides ([2]; four independent experiments): significant inhibitory effect
- Ccl5 expression, comparison of peptides [3]: significant reduction
- Ccl7 expression, comparison of peptides [3]: significant reduction
- Ifit1 expression, comparison of peptides [3]: significant reduction

Sequence: GRKKRRQRRRPPQ [TAT, reference compound]
- ie1 transcript levels, comparison of peptides ([2]; four independent experiments): partial reduction
- DNA binding (fluorescence reduction of SYBR Gold-stained plasmid DNA) [4]: partial fluorescence reduction
- replication of mouse cytomegalovirus (MCMV) [5]: partial inhibitory effect

Sequence: GRKKRRQRRRPPQCLAFYACFC [TAT-I24]
- effect on cell attachment and morphology ([6]; 20 µM): some effect on cell attachment and morphology
- cytopathic effects caused by the virus infection ([6]; MCMV MOI 1, 48 h post-infection, increasing concentrations of TAT-I24, crystal violet staining): inhibited
- cytotoxic effect (cell viability assay) [7]: does not exert any cytotoxic effect
- reduction of ie1 transcript levels [2, 21]: 90%
- expression of spliced late gene m129/131 ([2]; NIH/3T3, MCMV MOI 1, 10 µM): reduced
- gene expression of M94 (late gene) ([2]; NIH/3T3, MCMV MOI 1, 10 µM): strongly inhibited
- levels of m152 transcripts (early gene) ([2]; NIH/3T3, MCMV MOI 1, 10 µM): strongly reduced
- m169 mRNA levels (early gene) ([2]; NIH/3T3, MCMV MOI 1, 10 µM): strongly reduced
- reduction of ie1 transcript levels compared to untreated cells ([2]; NIH/3T3, MCMV MOI 1, 10 µM, 2 h post-infection, four independent experiments): more than 90%
- ie1 transcript levels, comparison of peptides ([2]; four independent experiments): significant inhibitory effect
- viral DNA (genome copies by ie1 PCR) [8, 21]: not reflected at the level of viral DNA
- viral DNA after 24 h ([8]; NIH/3T3, MCMV MOI 1, 10 µM, 24 h post-infection): remained at background levels
- amount of viral DNA compared to untreated cells ([8]; NIH/3T3, MCMV MOI 1, 10 µM, ie1 PCR, three independent experiments): about 60%
- Ccl5 transcript levels ([3]; MCMV MOI 1, 10 µM): reduction
- Gadd45a mRNA levels, untreated vs peptide-treated cells ([3]; MCMV MOI 1, 10 µM): no difference
- Herpud1 transcript levels, untreated vs peptide-treated cells ([3]; MCMV MOI 1, 10 µM): no differences
- Top2a transcript levels ([3]; MCMV MOI 1, 10 µM): no significant effect
- Ccl7 transcript levels [3, 22]: reduced
- Cxcl10 transcript levels [3, 22]: reduced
- Ifit1 transcript levels [3, 22]: significantly reduced
- Nfkbia transcript levels [3, 22]: reduced
- Ccl7 transcript levels [3, 23]: started to increase
- Cxcl10 transcript levels [3, 23]: started to increase
- Nfkbia mRNA levels [3, 23]: comparable between untreated and peptide-treated cells
- Ifit1 mRNA levels ([3]; MCMV MOI 1, 10 µM, after 4 h): also increased in the presence of the peptide
- Ccl5 expression, comparison of peptides [3]: significant reduction
- Ccl7 expression, comparison of peptides [3]: significant reduction
- Ifit1 expression, comparison of peptides [3]: significant reduction
- BrdU-labelled genomes seen in cells ([9]; 10 µM during adsorption at 4 °C, 30 min post-cold release, no pepsin): almost no BrdU-labelled genomes
- BrdU-antibody staining after post-fixation pepsin treatment ([9]; 10 µM during adsorption, pepsin 20 min at 37 °C after fixation and permeabilization): clear appearance of a punctate pattern
- cell viability [10]: does not affect cell viability
- binding to DNA [1]: binds DNA with high affinity
- replication of SV40 polyomavirus [11]: inhibit replication
- replication of herpes simplex virus [12]: inhibit replication
- replication of human cytomegalovirus [13]: inhibit replication
- inhibition of HIV-1 [14]: Partial inhibition
- reporter gene expression from a non-replicating baculovirus [15]: reduction of reporter gene expression
- inhibition of RSV [16]: Partial inhibition
- replication of some adenoviruses [17]: inhibit replication
- replication of vaccinia virus [18]: inhibit replication
- replication of mouse cytomegalovirus (MCMV) [5]: inhibit replication
- Ccl5 transcript levels [19]: significantly reduced
- Ccl7 transcript levels [19]: significantly reduced
- Cxcl10 transcript levels [19]: significantly reduced

Sequence: RRRCLAFYACFC [TAT-M25, three amino-terminal arginine residues fused to I24]
- antiviral activity (luciferase reporter gene expression) [20]: lack of antiviral activity
- DNA binding (fluorescence reduction of SYBR Gold-stained plasmid DNA) [4]: reduced DNA binding

Sequence: RRRPPQCLAFYACFC [TAT-M24, six C-terminal residues of the TAT peptide fused to I24]
- antiviral activity (luciferase reporter gene expression) [20]: lack of antiviral activity
- DNA binding (fluorescence reduction of SYBR Gold-stained plasmid DNA) [4]: reduced DNA binding
